Usually pIC50 stands for the IC50 on a negative log10 scale, so that one unit is a factor of ten. By half-life is commonly meant how long it takes for the measured level to halve. A high value points to slow decline.

Each structure is given as a SMILES string. pIC50: −log10 of the molar value.

One series concerns the target EPPIN (Homo sapiens, UniProt O95925). The series can be described thus: AlphaScreen assay of a-EAb binding to EPPIN. Particulars: n = 4, read-out: IC50, inhibition of a-EAb binding to EPPIN. Here is the method: The AlphaScreen® assay was carried as previously described. Briefly, recombinant histidine-tagged recombinant EPPIN was pre-incubated with Ni-NTA chelate donor beads (catalog number AS101, Perkin Elmer, Waltham MA) and anti-Eppin 007 antibody was pre-incubated with Protein A acceptor beads (catalog number 6760136, Perkin Elmer, Waltham MA) for 30 minutes. Equal volumes of donor and acceptor bead mixtures were pipetted into white opaque 384-well microplates (OptiPlate-384; PerkinElmer, Waltham, MA) in a final volume of 30 μL. Plates were covered with top seal and transferred to a Synergy 2 Multiplatform automated plate reader (Biotek, Winooski, VT). After shaking for 2 min, plates were read with an excitation 680/30 filter, an emission 570/100 filter and data acquired using Gen5 software (Biotek). Each set of samples was pipetted in 4 replicates. […] A specific signal for each time point was calculated by subtracting the background signal (obtained in the absence of EPPIN) from its respective total signal. […] Non-specific interactions of compound with assay components were measured at the same time with the IgG detection kit ([…] biotinylated rabbit IgG) to generate the bead interaction: 10 μg/ml donor and acceptor beads. […]
(In general: In Alpha technology, singlet oxygen from a donor bead excites a nearby acceptor bead.)

Another series concerns human sperm. The series is described as follows: CASA (Computer Assisted Sperm Analysis) assay of human sperm motility. The series is classed as cell-based. Particulars: n = 4 donors, read-out: average relative motility index (RMI) IC50. Here is the method: Human semen samples were obtained from the Department of Obstetrics and Gynecology, University of North Carolina Memorial Hospital, Chapel Hill, NC. […] Semen samples were allowed to liquefy for 30 minutes and subjected to standard semen analysis to determine acceptability before freezing. All samples were stored in liquid nitrogen, and de-identified by the Department of Obstetrics and Gynecology, University of North Carolina Memorial Hospital, Chapel Hill, NC before further processing. A density gradient (Isolate catalog number 99264, Irving Scientific, Irving CA, or SpermCare catalog number 2221 and 2222, InvitroCare Inc., Frederick MD) was used to prepare spermatozoa for further analysis. At least 3 independent experiments were done per assay, each using a single donor.
Computer Assisted Sperm Analysis (CASA) was conducted as previously described. Briefly sperm were washed after the density gradient with EP buffer-0.4% BSA and resuspended in modified M16 for compound treatments. Sperm were diluted to 5 x 10^6/mL in 12x75 mm glass tubes with the appropriate treatment and incubated at 37°C in 5% CO2. […] The relative mobility index (RMI) is a measure of the effect of compound on sperm and is calculated as the VSL x %normal motility and normalized to the appropriate DMSO control.

Series [1] in a line: EP012 plasma half-life in rats. Particulars: rat, iv, preliminary testing, 1 mg/kg i.v. bolus. The series is classed as in vivo. The method, then:
Preliminary half-life measurements for EP012 were carried out by Calvert Laboratories ([…]
The intravenous formulation was prepared by mixing an appropriate amount of EP012 (1 mg/kg) with an appropriate volume of intravenous vehicle (DMSO). The pH of the intravenous formulations was confirmed to be 7.4-7.6 and instilled through a syringe filter for sterilization prior to dosing. Three Sprague Dawley male rats (8-14 weeks; 300 to 325 g) were surgically implanted with a catheter in a jugular vein using polyurethane tubing and glycerol or dextrose solution as the lumen lock solution. The intravenous formulation was administered as a bolus injection into a lateral tail vein.
Serial blood samples (~0.30 mL each), were obtained from each animal via the jugular vein catheter at the following timepoints post-dose: 0.083, 0.167, 0.333, 0.5, 1, 2, 4, 8, 12, and 24 hours. Plasma (~125 µL per sample) was harvested following centrifugation of the chilled blood samples at 3000 RPM for 10 minutes at +4 °C. Derived plasma was transferred into prelabeled plastic vials and stored frozen at approximately -70 °C or lower until processing.
Sample preparation and LC-MS/MS analysis were done by OpAns LLC (Durham, NC). Plasma samples (both rat and macaque) were thawed at room temperature and processed by adding 160 µL of methanol (including 10 µL internal standard) to 25 µL of the sample. […]

Chain of EPPIN (O95925 22-133): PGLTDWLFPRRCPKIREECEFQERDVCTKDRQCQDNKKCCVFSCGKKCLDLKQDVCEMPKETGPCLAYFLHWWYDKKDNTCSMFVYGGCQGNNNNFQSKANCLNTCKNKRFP

With `COC(=O)NNc1nc(Nc2ccc(NC(=O)OC)c(O)c2)nc(SCC(=O)O)n1` [EP012], the figures for the pIC50 at EPPIN and in the series with human sperm were 4.26 and 4.48, respectively. In series [1], the half-life is less than 4 min.

The record behind these values is paper PMC5908160, “Inhibition of sperm motility in male macaques with EP055, a potential non-hormonal male contraceptive” (PLoS ONE, 2018).
